The values that follow come from ChEMBL document CHEMBL2069183, “Inhibitor scaffold for the histone lysine demethylase KDM4C (JMJD2C)” (Bioorg Med Chem Lett, 2012).

Structures are written as SMILES. Activity calls are given as the source filed them. No cut-off for these calls is given here. A value given as a limit tells only on which side of the number the result lay.

Sequence of Alcohol dehydrogenase class-3 (Homo sapiens) (P11766 2-374 limits assumed): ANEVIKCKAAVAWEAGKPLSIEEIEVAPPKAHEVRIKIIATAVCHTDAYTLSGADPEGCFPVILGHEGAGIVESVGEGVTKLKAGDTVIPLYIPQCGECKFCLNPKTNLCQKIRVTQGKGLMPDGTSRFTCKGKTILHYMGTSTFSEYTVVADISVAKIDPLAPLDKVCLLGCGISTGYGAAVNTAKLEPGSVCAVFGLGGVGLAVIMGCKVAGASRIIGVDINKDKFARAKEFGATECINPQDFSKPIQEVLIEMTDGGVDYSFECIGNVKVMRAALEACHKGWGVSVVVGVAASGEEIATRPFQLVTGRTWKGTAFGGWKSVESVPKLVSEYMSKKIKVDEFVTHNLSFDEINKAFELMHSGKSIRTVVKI
Sequence of Lysine-specific demethylase 6A (O15550 whole entry): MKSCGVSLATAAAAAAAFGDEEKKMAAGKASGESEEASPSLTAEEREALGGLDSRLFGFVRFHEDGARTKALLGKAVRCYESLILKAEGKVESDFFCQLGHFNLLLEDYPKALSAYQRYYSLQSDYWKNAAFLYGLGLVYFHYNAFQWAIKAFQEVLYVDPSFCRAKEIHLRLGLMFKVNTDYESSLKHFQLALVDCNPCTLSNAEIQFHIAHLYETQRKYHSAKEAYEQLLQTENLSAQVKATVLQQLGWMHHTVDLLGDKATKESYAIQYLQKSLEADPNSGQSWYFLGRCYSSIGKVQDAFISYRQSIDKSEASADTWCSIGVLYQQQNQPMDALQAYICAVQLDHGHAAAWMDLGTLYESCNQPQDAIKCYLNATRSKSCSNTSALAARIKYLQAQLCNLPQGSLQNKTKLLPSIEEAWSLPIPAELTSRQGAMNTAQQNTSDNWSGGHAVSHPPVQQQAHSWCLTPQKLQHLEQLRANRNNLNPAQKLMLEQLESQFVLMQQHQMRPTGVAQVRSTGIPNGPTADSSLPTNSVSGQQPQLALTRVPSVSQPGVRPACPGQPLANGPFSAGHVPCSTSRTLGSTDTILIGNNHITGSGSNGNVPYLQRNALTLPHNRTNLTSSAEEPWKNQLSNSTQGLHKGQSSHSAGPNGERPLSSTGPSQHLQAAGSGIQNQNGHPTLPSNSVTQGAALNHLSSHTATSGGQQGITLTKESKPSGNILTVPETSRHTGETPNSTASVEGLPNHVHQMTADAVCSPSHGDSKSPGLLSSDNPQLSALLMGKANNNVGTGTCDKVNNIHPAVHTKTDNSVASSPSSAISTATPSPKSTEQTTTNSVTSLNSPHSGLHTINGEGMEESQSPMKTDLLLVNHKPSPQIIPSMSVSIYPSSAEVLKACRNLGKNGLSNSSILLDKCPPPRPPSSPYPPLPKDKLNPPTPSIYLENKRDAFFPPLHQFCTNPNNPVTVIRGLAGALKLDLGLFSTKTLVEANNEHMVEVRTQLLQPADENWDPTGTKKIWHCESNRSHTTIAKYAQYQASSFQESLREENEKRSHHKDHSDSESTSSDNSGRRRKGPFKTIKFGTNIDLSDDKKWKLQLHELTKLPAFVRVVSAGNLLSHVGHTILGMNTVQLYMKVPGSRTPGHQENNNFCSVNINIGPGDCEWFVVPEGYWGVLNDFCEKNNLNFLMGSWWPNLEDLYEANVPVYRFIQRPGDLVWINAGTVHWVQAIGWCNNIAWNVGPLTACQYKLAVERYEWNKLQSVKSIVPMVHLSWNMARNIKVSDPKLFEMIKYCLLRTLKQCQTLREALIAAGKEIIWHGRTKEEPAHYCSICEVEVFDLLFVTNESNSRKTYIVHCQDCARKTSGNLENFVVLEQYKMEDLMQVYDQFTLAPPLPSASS

The first test deals with T1, Lysine-specific demethylase 4C (Homo sapiens, UniProt Q9H3R0).
T1 sequence (Q9H3R0 whole entry): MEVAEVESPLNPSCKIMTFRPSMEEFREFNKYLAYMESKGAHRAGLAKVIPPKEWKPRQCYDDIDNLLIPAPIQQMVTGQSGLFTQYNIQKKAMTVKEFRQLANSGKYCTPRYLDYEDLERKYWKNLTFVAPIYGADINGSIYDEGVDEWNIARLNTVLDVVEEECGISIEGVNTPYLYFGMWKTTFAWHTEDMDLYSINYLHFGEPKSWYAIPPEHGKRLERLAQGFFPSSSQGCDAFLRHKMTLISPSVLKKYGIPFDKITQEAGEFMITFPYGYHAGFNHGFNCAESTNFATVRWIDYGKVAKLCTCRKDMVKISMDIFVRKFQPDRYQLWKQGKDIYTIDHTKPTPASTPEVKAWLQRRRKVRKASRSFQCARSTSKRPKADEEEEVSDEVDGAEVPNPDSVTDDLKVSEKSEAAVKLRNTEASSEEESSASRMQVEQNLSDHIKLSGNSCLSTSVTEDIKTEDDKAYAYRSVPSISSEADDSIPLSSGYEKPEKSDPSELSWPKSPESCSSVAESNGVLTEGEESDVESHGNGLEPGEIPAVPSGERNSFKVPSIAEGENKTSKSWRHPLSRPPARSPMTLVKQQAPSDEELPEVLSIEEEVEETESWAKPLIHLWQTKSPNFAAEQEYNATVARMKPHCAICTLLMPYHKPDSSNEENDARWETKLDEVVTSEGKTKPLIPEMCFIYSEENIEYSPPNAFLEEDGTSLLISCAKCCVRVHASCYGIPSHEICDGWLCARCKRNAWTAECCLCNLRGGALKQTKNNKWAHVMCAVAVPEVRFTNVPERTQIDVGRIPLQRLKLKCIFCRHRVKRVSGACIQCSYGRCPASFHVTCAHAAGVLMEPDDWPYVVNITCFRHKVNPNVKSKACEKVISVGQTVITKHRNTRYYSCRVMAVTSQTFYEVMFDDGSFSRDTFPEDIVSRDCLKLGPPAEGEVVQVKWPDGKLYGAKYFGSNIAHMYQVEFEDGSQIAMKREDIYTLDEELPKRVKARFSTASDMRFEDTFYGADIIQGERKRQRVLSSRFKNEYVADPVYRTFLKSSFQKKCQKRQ
Kind of test: Inhibition of KDM4C catalytic core-mediated demethylation of ARK(Me)3STGGK after 30 mins by FDH-coupled assay.
Conditions: not given
Broadly, the IC50 is the concentration that gives 50% inhibition. Read a low IC50 as greater potency. A word on the Ki: it is the equilibrium dissociation constant of an inhibitor or competing ligand from its target. A low value points to a stronger hold on the target. As to `O=C(O)c1cc([N+](=O)[O-])[nH]n1`, the concentration for half-maximal inhibition (IC50) is more than 200 µM and the Ki is more than 200 µM.

For the compound `Cc1nn(C)n(C)c1=S`, the IC50 was more than 200 µM and the Ki was more than 200 µM.

In the case of `Cn1cc(N)nn1`, the IC50 was more than 200 µM and the Ki is more than 200 µM.

In the case of `CCOC(=O)c1[nH]nnc1C`, the IC50 is more than 200 µM and the Ki is more than 200 µM.

In turn, `O=C(O)c1cn(-c2ccccc2)nn1` gave an IC50 of more than 200 µM and a Ki of more than 200 µM.

For `COC(=O)c1n[nH]n(Cc2ccccc2)c1=O`, the IC50 was more than 200 µM and the Ki is more than 200 µM.

For the compound `c1cn[nH]c1` [PYRAZOLE], the IC50 was more than 200 µM and the Ki is more than 200 µM.

As to `Clc1csc(-c2ccccc2)n1`, the IC50 was more than 200 µM and the Ki was more than 200 µM.

`COn1nnc(C(=O)O)c1C(=O)O` showed an IC50 of more than 200 µM and a Ki of more than 200 µM.

`Cn1cc(Br)nc1-c1ccccc1` registered an IC50 of more than 200 µM and a Ki of more than 200 µM.

`CNC(=O)c1nnn(C)c1O` registered an IC50 of more than 200 µM and a Ki of more than 200 µM.

`C[n+]1nn(Cc2ccccc2)cc1Cl` yielded an IC50 of more than 200 µM and a Ki of more than 200 µM.

For the compound `COC(=O)c1n[nH]c(C(=O)OC)c1O`, the 50% inhibitory concentration (IC50) worked out at 30 µM and the inhibition constant Ki was 51 µM.

Consider `Cc1ccc(Cn2cc(C(=O)O)nn2)cc1`, for which the 50% inhibitory concentration (IC50) was more than 200 µM and the Ki is more than 200 µM.

`[O-][n+]1nn(-c2ccccc2)c(Cl)c1Cl` displayed an IC50 of more than 200 µM and a Ki of more than 200 µM.

`COc1c(-c2ccccc2)nnn1C` gave an IC50 of more than 200 µM and a Ki of more than 200 µM.

With `[O-][n+]1nn(-c2ccccc2)c(CO)c1Cl`, the IC50 was more than 200 µM and the inhibition constant (Ki) is more than 200 µM.

As for `CCOC(=O)c1nnn(-c2ccccc2)c1NC(C)=O`, the IC50 is more than 200 µM and the Ki was more than 200 µM.

For the compound `OB(O)c1cc[nH]n1`, the IC50 is more than 200 µM and the Ki was more than 200 µM.

`[O-][n+]1nn(Cc2ccccc2)c(Br)c1Br` returned an IC50 of more than 200 µM and an inhibitory constant (Ki) of more than 200 µM.

In the case of `Cc1ccc(-n2nc(C(=O)c3ccccc3)c(O)c2C)cc1`, the IC50 was more than 200 µM and the Ki was more than 200 µM.

For `Cn1cc(Cl)nc1Cl`, the IC50 was more than 200 µM and the Ki was more than 200 µM.

`Oc1csc(O)n1` returned a concentration for half-maximal inhibition (IC50) of more than 200 µM and a Ki of more than 200 µM.

Compound `O=C(O)c1cnnn1-c1ccccc1` yielded a half-maximal inhibitory concentration (IC50) of more than 200 µM and a Ki of more than 200 µM.

Compound `[O-][n+]1nn(-c2ccccc2)c(Br)c1Cl` showed an IC50 of more than 200 µM and a Ki of more than 200 µM.

`Cn1c(Cl)cnc1CO` gave an IC50 of more than 200 µM and a Ki of more than 200 µM.

Turning to `CSc1c(Cl)[n+]([O-])nn1-c1ccccc1`, the IC50 is more than 200 µM and the inhibition constant Ki is more than 200 µM.

Turning to `O=C1CN=C(c2ccccc2)c2cc([N+](=O)[O-])ccc2N1` [NITRAZEPAM], the half-inhibitory concentration (IC50) was more than 200 µM and the Ki is more than 200 µM.

The compound `O=C(O)c1cnn(-c2ccccc2)n1` yielded an IC50 of more than 200 µM and a Ki of more than 200 µM.

In turn, `[O-][n+]1nn(-c2ccccc2)c(Br)c1Br` yielded an IC50 of more than 200 µM and a Ki of more than 200 µM.

The compound `Brc1cn(Cc2ccccc2)nn1` displayed a 50% inhibitory concentration (IC50) of more than 200 µM and a Ki of more than 200 µM.

As to `[O-][n+]1nn(-c2ccccc2)c(Cl)c1Br`, the IC50 was more than 200 µM and the Ki is more than 200 µM.

With `O=C(O)c1cc[nH]n1`, the IC50 was more than 200 µM and the Ki was more than 200 µM.

For the compound `COc1ccc(Cn2nnc(C(=O)O)c2N)cc1`, the IC50 is more than 200 µM and the Ki was more than 200 µM.

Compound `[O-][n+]1nn(Cc2ccccc2)cc1Cl` gave an IC50 of more than 200 µM and a Ki of more than 200 µM.

As to `[O-][n+]1nn(Cc2ccccc2)cc1Br`, the IC50 was more than 200 µM and the Ki was more than 200 µM.

As for `Cc1c(O)c(C=O)nn1-c1ccccc1`, the IC50 was determined as 100 µM and the Ki was found to be 142 µM.

As for `COc1sc(-c2ccccc2)nc1Cl`, the IC50 was more than 200 µM and the Ki is more than 200 µM.

Compound `[O-][n+]1nn(Cc2ccccc2)c(C(=S)Nc2ccccc2)c1Cl` registered an IC50 of more than 200 µM and a Ki of more than 200 µM.

As for `Nc1cn(-c2ccccc2)nn1`, the IC50 was more than 200 µM and the Ki was more than 200 µM.

Turning to `O=[N+]([O-])c1cnn(-c2ccccc2)c1`, the IC50 was more than 200 µM and the Ki is more than 200 µM.

Take `CN1C=C(Br)N(O)N1`: the IC50 is more than 200 µM and the Ki is more than 200 µM.

Consider `Cc1c(Cl)[n+]([O-])nn1-c1ccccc1`, for which the IC50 was more than 200 µM and the Ki was more than 200 µM.

Consider `Cc1c(C(=O)O)cnn1C`, for which the 50% inhibitory concentration (IC50) is more than 200 µM and the Ki was more than 200 µM.

As to `N#Cc1cccnc1Nc1cccnc1Cl`, the IC50 is more than 200 µM and the Ki is more than 200 µM.

`Cc1c(O)c(C(=O)c2ccccc2)nn1-c1ccccc1` gave an IC50 of more than 200 µM and an inhibition constant Ki of more than 200 µM.

Compound `C[n+]1ccnn1-c1ccccc1` came in with an IC50 of more than 200 µM and a Ki of more than 200 µM.

For the compound `Cn1cc(C(=O)O)nn1`, the half-maximal inhibitory concentration (IC50) was more than 200 µM and the Ki was more than 200 µM.

For the compound `CN1CN(Cc2ccccc2)C=C1S`, the IC50 is more than 200 µM and the inhibitory constant (Ki) is more than 200 µM.

For `OCC1C(Cl)=NNN1c1ccccc1` (stereo unspecified), the IC50 is more than 200 µM and the inhibitory constant (Ki) is more than 200 µM.

Compound `O=C(O)c1cc(C(=O)O)[nH]n1` returned an IC50 of more than 200 µM and a Ki of more than 200 µM.

A further test concerns the target Alcohol dehydrogenase class-3 (Homo sapiens) (UniProt P11766). Kind of test: Inhibition of FDH using formalin as substrate at 0.01 to 500 uM after 30 mins by fluorimetry.
Conditions: not given
Turning to `COC(=O)c1n[nH]c(C(=O)OC)c1O`, the inhibition entry was “inactive”.

Turning to `Cc1c(O)c(C=O)nn1-c1ccccc1`, the inhibition entry was “inactive”.

Another test has as its target Lysine-specific demethylase 6A (Homo sapiens, UniProt O15550). In words: Inhibition of KDM6A.
Conditions: not given
The compound `O=C(O)c1ccnc(C(=O)O)c1` displayed an IC50 of 177 µM.

The next test deals with T2, Lysine-specific demethylase 4C (Homo sapiens) (UniProt Q9H3R0).
T2 sequence (whole entry): T1 sequence (Q9H3R0 whole entry)
The note with it: 500 uM.
Description: Inhibition of KDM4C catalytic core-mediated demethylation of ARK(Me)3STGGK at 500 uM after 30 mins by FDH-coupled assay in presence of increasing concentration of Fe(II) ions
Turning to `COC(=O)c1n[nH]c(C(=O)OC)c1O`, the inhibition result is “inactive”.
